From PMC10018692 (ACS Omega, 2023)
Values after ≈ are worked out from the molar mass of the structure shown.

Tests used:
[1] = Drug solubility of free PTL and PTL-loaded nanoparticles; assay type: physicochemical; conditions: phosphate buffer, pH 7.4
[2] = Pharmacokinetic study in albino rats; assay type: in vivo; conditions: 10 mg/kg

## CC(=O)O[C@H]1C(=O)[C@@]2(C)[C@H]([C@H](OC(=O)c3ccccc3)[C@]3(O)C[C@H](OC(=O)[C@H](O)[C@@H](NC(=O)c4ccccc4)c4ccccc4)C(C)=C1C3(C)C)[C@]1(OC(C)=O)CO[C@@H]1C[C@@H]2O [PTL, Paclitaxel]
[1]
  solubility at 24 h: ~4.5 µg/mL (≈ 5.27 µM)
[2]; rat, plasma, po
  AUC(0-inf): 2980 ± 53.1 ng·h/mL
  AUC(0-t): 2830 ± 56.8 ng·h/mL
  Cmax: 239 ± 26.2 ng/mL
  Tmax: 2 ± 0.05 h
  half-life: 8.76 ± 1.1 h
[2]; rats
  Kel: 0.072 ± 0.001
[2]; rats, HPLC
  plasma PTL concentration after 12 h: below the HPLC quantification limit
